In US20140329797A1, “SUBSTITUTED OXADIAZOLYL PYRIDINONES AND OXADIAZOLYL PYRIDAZINONES AS HIF INHIBITORS” (Bayer Intellectual Property GmbH, priority 2011, published 2014):
pIC50: −log10 of the molar value.

system: HCT 116 cells transfected with a luciferase reporter under the control of an HIF-responsive sequence; assay: HIF-luciferase assay; format: cell-based; conditions: Homo sapiens; HCT 116 HIF-luciferase reporter cells, hypoxia chamber (1% O2), 24 h; in some cases means of up to four individual determinations
Experimental: B-1. HIF-Luciferase Assay
HCT 116 cells were transfected in a stable manner with a plasmid which contained a luciferase reporter under the control of an HIF-responsive sequence. These cells were sown in microtitre plates [20000 cells/cavity in RPMI 1640 medium with 10% foetal calf serum (FCS) and 100 μg/ml of hygromycin]. Incubation was carried out overnight under standard conditions (5% CO2, 21% O2, 37° C., moistened). The following morning the cells were incubated with various concentrations of the test substances (0-10 μmol/l) in a hypoxia chamber (1% O2). After 24 h, Bright Glo reagent (Promega, Wisconsin, USA) was added in accordance with the manufacturer's instructions, and after 5 min the luminescence was measured. Cells which were incubated under normoxia served as background controls.

Structure (SMILES) | pIC50
CC(C)(c1ccc(-c2noc(-c3ccc(=O)n(Cc4ccc(Cl)cc4)c3)n2)cc1)C(F)(F)F [Example 4, 1-(4-Chlorobenzyl)-5-{3-[4-(1,1,1-trifluoro-2-methylpropan-2-yl)phenyl]-1,2,4-oxadiazol-5-yl}pyridin-2(1H)-one] | 7.30
Nc1ccc(Cn2cc(-c3nc(-c4ccc(OC(F)(F)F)cc4)no3)ccc2=O)cc1 [Example 7, 1-(4-Aminobenzyl)-5-{3-[4-(trifluoromethoxy)phenyl]-1,2,4-oxadiazol-5-yl}pyridin-2(1H)-one] | 7.70
N#CC1CCN(c2cccc(Cn3cc(-c4nc(-c5ccc(OC(F)(F)F)cc5)no4)ccc3=O)c2)CC1 [Example 9, 1-(3-{[2-oxo-5-{3-[4-(trifluoromethoxy)phenyl]-1,2,4-oxadiazol-5-yl}pyridin-1(2H)-yl]methyl}phenyl)piperidine-4-carbonitrile] | 8.82
N#CC1CCN(c2cccc(Cn3cc(-c4nc(-c5ccc(SC(F)(F)F)cc5)no4)ccc3=O)c2)CC1 [Example 10, 1-(3-{[2-oxo-5-(3-{4-[(trifluoromethyl)sulphanyl]phenyl}-1,2,4-oxadiazol-5-yl)pyridin-1(2H)-yl]methyl}phenyl)piperidine-4-carbonitrile] | 9.00
CC(C)(c1ccc(-c2noc(-c3ccc(=O)n(Cc4cccc(N5CCC(C#N)CC5)c4)c3)n2)cc1)C(F)(F)F [Example 11, 1-(3-{[2-oxo-5-{3-[4-(1,1,1-trifluoro-2-methylpropan-2-yl)phenyl]-1,2,4-oxadiazol-5-yl}pyridin-1(2H)-yl]methyl}phenyl)piperidine-4-carbonitrile] | 8.70
O=c1ccc(-c2nc(-c3ccc(SC(F)(F)F)cc3)no2)cn1Cc1cccc(N2CC(O)C2)c1 [Example 14, 1-[3-(3-Hydroxyazetidin-1-yl)benzyl]-5-(3-{4-[(trifluoromethyl)sulphanyl]phenyl}-1,2,4-oxadiazol-5-yl)pyridin-2(1H)-one] | 8.70
CC(C)(c1ccc(-c2noc(-c3ccc(=O)n(Cc4cccc(N5CC(O)C5)c4)c3)n2)cc1)C(F)(F)F [Example 15, 1-[3-(3-Hydroxyazetidin-1-yl)benzyl]-5-{3-[4-(1,1,1-trifluoro-2-methylpropan-2-yl)phenyl]-1,2,4-oxadiazol-5-yl}pyridin-2(1H)-one] | 8.70
O=c1ccc(-c2nc(-c3ccc(C4(C(F)(F)F)CC4)cc3)no2)cn1Cc1cccc(N2CC(O)C2)c1 [Example 16, 1-[3-(3-Hydroxyazetidin-1-yl)benzyl]-5-(3-{4-[1-(trifluoromethyl)cyclopropyl]phenyl}-1,2,4-oxadiazol-5-yl)pyridin-2(1H)-one] | 8.30
COC(=O)c1cccc(Cn2cc(-c3nc(-c4ccc(C(C)(C)C(F)(F)F)cc4)no3)ccc2=O)c1 [Example 19, Methyl 3-{[2-oxo-5-{3-[4-(1,1,1-trifluoro-2-methylpropan-2-yl)phenyl]-1,2,4-oxadiazol-5-yl}pyridin-1(2H)-yl]methyl}benzoate] | 7.52
CNC(=O)c1cccc(Cn2cc(-c3nc(-c4ccc(C(C)(C)C(F)(F)F)cc4)no3)ccc2=O)c1 [Example 21, N-Methyl-3-{[2-oxo-5-{3-[4-(1,1,1-trifluoro-2-methylpropan-2-yl)phenyl]-1,2,4-oxadiazol-5-yl}pyridin-1(2H)-yl]methyl}benzamide] | 7.52
CN(C)C(=O)c1cccc(Cn2cc(-c3nc(-c4ccc(OC(F)(F)F)cc4)no3)ccc2=O)c1 [Example 22, N,N-Dimethyl-3-{[2-oxo-5-{3-[4-(trifluoromethoxy)phenyl]-1,2,4-oxadiazol-5-yl}pyridin-1(2H)-yl]methyl}benzamide] | 7.70
CN(C)C(=O)c1cccc(Cn2cc(-c3nc(-c4ccc(C(C)(C)C(F)(F)F)cc4)no3)ccc2=O)c1 [Example 23, N,N-Dimethyl-3-{[2-oxo-5-{3-[4-(1,1,1-trifluoro-2-methylpropan-2-yl)phenyl]-1,2,4-oxadiazol-5-yl}pyridin-1(2H)-yl]methyl}benzamide] | 7.82
O=C(c1cccc(Cn2cc(-c3nc(-c4ccc(OC(F)(F)F)cc4)no3)ccc2=O)c1)N1CCCC1 [Example 28, 1-[3-(Pyrrolidin-1-ylcarbonyl)benzyl]-5-{3-[4-(trifluoromethoxy)phenyl]-1,2,4-oxadiazol-5-yl}pyridin-2(1H)-one] | 8.70
O=C(c1cccc(Cn2cc(-c3nc(-c4ccc(OC(F)(F)F)cc4)no3)ccc2=O)c1)N1CCCO1 [Example 30, 1-[3-(1,2-Oxazolidin-2-ylcarbonyl)benzyl]-5-{3-[4-(trifluoromethoxy)phenyl]-1,2,4-oxadiazol-5-yl}pyridin-2(1H)-one] | 8.70
O=C(c1cccc(Cn2cc(-c3nc(-c4ccc(OC(F)(F)F)cc4)no3)ccc2=O)c1)N1CCC(O)CC1 [Example 32, 1-{3-[(4-Hydroxypiperidin-1-yl)carbonyl]benzyl}-5-{3-[4-(trifluoromethoxy)phenyl]-1,2,4-oxadiazol-5-yl}pyridin-2(1H)-one] | 8.70
CC(C)(c1ccc(-c2noc(-c3ccc(=O)n(Cc4cccc(C(=O)N5CCOCC5)c4)c3)n2)cc1)C(F)(F)F [Example 35, 1-[3-(Morpholin-4-ylcarbonyl)benzyl]-5-{3-[4-(1,1,1-trifluoro-2-methylpropan-2-yl)phenyl]-1,2,4-oxadiazol-5-yl}pyridin-2(1H)-one] | 7.70
CN1CCN(C(=O)c2cccc(Cn3cc(-c4nc(-c5ccc(C(C)(C)C(F)(F)F)cc5)no4)ccc3=O)c2)CC1 [Example 37, 1-{3-[(4-Methylpiperazin-1-yl)carbonyl]benzyl}-5-{3-[4-(1,1,1-trifluoro-2-methylpropan-2-yl)phenyl]-1,2,4-oxadiazol-5-yl}pyridin-2(1H)-one] | 8.00
O=C(c1cccc(Cn2cc(-c3nc(-c4ccc(OC(F)(F)F)cc4)no3)ccc2=O)c1)N1CCN(C2CC2)CC1 [Example 38, 1-{3-[(4-Cyclopropylpiperazin-1-yl)carbonyl]benzyl}-5-{3-[4-(trifluoromethoxy)phenyl]-1,2,4-oxadiazol-5-yl}pyridin-2(1H)-one] | 8.52
CC(C)(c1ccc(-c2noc(-c3ccc(=O)n(Cc4cccc(C(=O)N5CCN(C6CC6)CC5)c4)c3)n2)cc1)C(F)(F)F [Example 39, 1-{3-[(4-Cyclopropylpiperazin-1-yl)carbonyl]benzyl}-5-{3-[4-(1,1,1-trifluoro-2-methylpropan-2-yl)phenyl]-1,2,4-oxadiazol-5-yl}pyridin-2(1H)-one] | 8.30
CC(=O)OC1(c2cccc(Cn3cc(-c4nc(-c5ccc(OC(F)(F)F)cc5)no4)ccc3=O)c2)CC1 [Example 40, 1-(3-{[2-Oxo-5-{3-[4-(trifluoromethoxy)phenyl]-1,2,4-oxadiazol-5-yl}pyridin-1(2H)-yl]methyl}phenyl)cyclopropyl acetate] | 8.60

Further compounds by rising pIC50, results first:

pIC50 | Structure (SMILES)
7.35 | Cc1ccc(Cn2cc(-c3nc(-c4ccc(OC(F)(F)F)cc4)no3)ccc2=O)cc1 [Example 1, 1-(4-Methylbenzyl)-5-{3-[4-(trifluoromethoxy)phenyl]-1,2,4-oxadiazol-5-yl}pyridin-2(1H)-one]
7.40 | Cc1ccc(Cn2cc(-c3nc(-c4ccc(C(C)(C)C(F)(F)F)cc4)no3)ccc2=O)cc1 [Example 2, 1-(4-Methylbenzyl)-5-{3-[4-(1,1,1-trifluoro-2-methylpropan-2-yl)phenyl]-1,2,4-oxadiazol-5-yl}pyridin-2(1H)-one]
8.22 | CC(C)(c1ccc(-c2noc(-c3ccc(=O)n(Cc4cccc(C(=O)N5CCC(O)CC5)c4)c3)n2)cc1)C(F)(F)F [Example 33, 1-{3-[(4-Hydroxypiperidin-1-yl)carbonyl]benzyl}-5-{3-[4-(1,1,1-trifluoro-2-methylpropan-2-yl)phenyl]-1,2,4-oxadiazol-5-yl}pyridin-2(1H)-one]
8.30 | CC(C)(c1ccc(-c2noc(-c3ccc(=O)n(Cc4cccc(C(=O)N5CCC5)c4)c3)n2)cc1)C(F)(F)F [Example 25, 1-[3-(Azetidin-1-ylcarbonyl)benzyl]-5-{3-[4-(1,1,1-trifluoro-2-methylpropan-2-yl)phenyl]-1,2,4-oxadiazol-5-yl}pyridin-2(1H)-one]
8.30 | CN1CCN(C(=O)c2cccc(Cn3cc(-c4nc(-c5ccc(OC(F)(F)F)cc5)no4)ccc3=O)c2)CC1 [Example 36, 1-{3-[(4-Methylpiperazin-1-yl)carbonyl]benzyl}-5-{3-[4-(trifluoromethoxy)phenyl]-1,2,4-oxadiazol-5-yl}pyridin-2(1H)-one]
8.40 | O=C(c1cccc(Cn2cc(-c3nc(-c4ccc(OC(F)(F)F)cc4)no3)ccc2=O)c1)N1CCOCC1 [Example 34, 1-[3-(Morpholin-4-ylcarbonyl)benzyl]-5-{3-[4-(trifluoromethoxy)phenyl]-1,2,4-oxadiazol-5-yl}pyridin-2(1H)-one]
8.70 | O=c1ccc(-c2nc(-c3ccc(OC(F)(F)F)cc3)no2)cn1Cc1cccc(N2CC(O)C2)c1 [Example 13, 1-[3-(3-Hydroxyazetidin-1-yl)benzyl]-5-{3-[4-(trifluoromethoxy)phenyl]-1,2,4-oxadiazol-5-yl}pyridin-2(1H)-one]
8.82 | N#CC1CCN(c2cccc(Cn3cc(-c4nc(-c5ccc(C6(C(F)(F)F)CC6)cc5)no4)ccc3=O)c2)CC1 [Example 12, 1-(3-{[2-oxo-5-(3-{4-[1-(trifluoromethyl)cyclopropyl]phenyl}-1,2,4-oxadiazol-5-yl)pyridin-1(2H)-yl]methyl}phenyl)piperidine-4-carbonitrile]
9.00 | CC(C)(c1ccc(-c2noc(-c3ccc(=O)n(Cc4cccc(C(=O)N5CC(O)C5)c4)c3)n2)cc1)C(F)(F)F [Example 27, 1-{3-[(3-Hydroxyazetidin-1-yl)carbonyl]benzyl}-5-{3-[4-(1,1,1-trifluoro-2-methylpropan-2-yl)phenyl]-1,2,4-oxadiazol-5-yl}pyridin-2(1H)-one]
